target: TRKA (Homo sapiens (Human), UniProt P04629); assay: Isolated TRK enzyme assay (HTRF KinEASE-TK), PV3144 TrkA enzyme assay; type: biochemical; details: arithmetic mean where more than one reading
In short: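 Kinase (recombinant His-TrkA cytoplasmic domain, ATP-preactivated 20 min) met compound 20 min, then biotinylated TK substrate (1 µM final) with Mg2+/DTT buffer; HTRF detection.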

Sequence of TRKA (P04629 441-796): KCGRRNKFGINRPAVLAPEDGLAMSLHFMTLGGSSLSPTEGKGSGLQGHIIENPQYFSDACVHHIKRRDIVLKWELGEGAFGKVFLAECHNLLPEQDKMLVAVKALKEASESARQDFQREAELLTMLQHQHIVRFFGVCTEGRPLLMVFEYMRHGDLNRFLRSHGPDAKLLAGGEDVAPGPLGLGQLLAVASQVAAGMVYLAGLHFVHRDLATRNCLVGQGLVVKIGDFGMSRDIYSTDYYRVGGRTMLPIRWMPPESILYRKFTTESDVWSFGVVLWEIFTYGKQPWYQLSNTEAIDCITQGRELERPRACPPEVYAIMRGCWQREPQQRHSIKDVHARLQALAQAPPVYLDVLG

Row | Compound | IC50 [µM]
1 | CC(C)n1cc(C(=O)c2cncc(NC(=O)Cc3ccc(C#N)cn3)c2)c2cnccc21 [Example 139, 2-(5-cyanopyridin-2-yl)-N-(5-{[1-(propan-2-yl)-1H-pyrrolo[3,2-c]pyridin-3-yl]carbonyl}pyridin-3-yl)acetamide] | 0.1
2 | CC(CO)n1cc(C(=O)c2cncc(NC(=O)Cc3ccc(F)cn3)c2)c2cncc(F)c21 (single isomer, unassigned) [Example 212, N-(5-{[7-fluoro-1-(1-hydroxypropan-2-yl)-1H-pyrrolo[3,2-c]pyridin-3-yl]carbonyl}pyridin-3-yl)-2-(5-fluoropyridin-2-yl)acetamide] | 0.479
3 | CC(C)n1cc(C(=O)c2cncc(NC(=O)Cn3cccn3)c2)c2cnccc21 [Example 122, N-(5-{[1-(propan-2-yl)-1H-pyrrolo[3,2-c]pyridin-3-yl]carbonyl}pyridin-3-yl)-2(1H-pyrazol-1-yl)acetamide] | 1.22
4 | O=C(Cc1ccc(F)cc1F)Nc1cc(C(=O)c2cn(C3COC3)c3ccncc23)ccn1 [Example 198, 2-(2,4-difluorophenyl)-N-(4-{[1-(oxetan-3-yl)-1H-pyrrolo[3,2-c]pyridin-3-yl]carbonyl}pyridin-2-yl)acetamide] | 0.105
5 | CC(CO)n1cc(C(=O)c2cncc(NC(=O)Cc3ccc(C(F)(F)F)cc3)c2)c2cnccc21 (single isomer, unassigned) [Example 35, N-(5-{[1-(1-hydroxypropan-2-yl)-1H-pyrrolo[3,2-c]pyridin-3-yl]carbonyl}pyridin-3-yl)-2-[4-(trifluoromethyl)phenyl]acetamide] | 0.0879
6 | Cc1ccn(CC(=O)Nc2cc(C(=O)c3cn(CCO)c4ccncc34)ccn2)n1 [Example 150, N-(4-{[1-(2-hydroxyethyl)-1H-pyrrolo[3,2-c]pyridin-3-yl]carbonyl}pyridin-2-yl)-2-(3-methyl-1H-pyrazol-1-yl)acetamide] | 3.08
7 | O=C(Cc1ccc(F)cc1)Nc1cc(C(=O)c2cn(CCO)c3ccncc23)ccn1 [Example 148, 2-(4-fluorophenyl)-N-(4-{[1-(2-hydroxyethyl)-1H-pyrrolo[3,2-c]pyridin-3-yl]carbonyl}pyridin-2-yl)acetamide] | 0.424
8 | N-(5-{[7-fluoro-1-(1-hydroxypropan-2-yl)-1H-pyrrolo[3,2-c]pyridin-3-yl]carbonyl}pyridin-3-yl)-2-[4-(trifluoromethyl)-1H-1,2,3-triazol-1-yl]acetamide [Example 214] | 0.0931
9 | Cc1noc(C)c1CC(=O)Nc1cc(C(=O)c2cn(C(C)C)c3ccncc23)ccn1 [Example 160, 2-(3,5-dimethyl-1,2-oxazol-4-yl)-N-(4-{[1-(propan-2-yl)-1H-pyrrolo[3,2-c]pyridin-3-yl]carbonyl}pyridin-2-yl)acetamide] | 8.99
10 | Cc1nc(C)n(CC(=O)Nc2cncc(C(=O)c3cn(C(C)C)c4ccncc34)c2)n1 [Example 137, 2-(3,5-dimethyl-1H-1,2,4-triazol-1-yl)-N-(5-{[1-(propan-2-yl)-1H-pyrrolo[3,2-c]pyridin-3-yl]carbonyl}pyridin-3-yl)acetamide] | 9.8
11 | CC(C)n1cc(C(=O)c2cc(NC(=O)Cn3cc(C(F)(F)F)nn3)ccn2)c2cnccc21 [Example 53, N-(2-{[1-(propan-2-yl)-1H-pyrrolo[3,2-c]pyridin-3-yl]carbonyl}pyridin-4-yl)-2-[4-(trifluoromethyl)-1H-1,2,3-triazol-1-yl]acetamide] | 0.11
12 | N-(5-{[7-fluoro-1-(1-hydroxypropan-2-yl)-1H-pyrrolo[3,2-c]pyridin-3-yl]carbonyl}pyridin-3-yl)-2-[4-(trifluoromethyl)phenyl]acetamide [Example 209] | 0.264
13 | Cc1ccnn1CC(=O)Nc1cc(C(=O)c2cn(C(C)C)c3ccncc23)ccn1 [Example 169, 2-(5-methyl-1H-pyrazol-1-yl)-N-(4-{[1-(propan-2-yl)-1H-pyrrolo[3,2-c]pyridin-3-yl]carbonyl}pyridin-2-yl)acetamide] | 0.0836
14 | CC(CO)n1cc(C(=O)c2cc(NC(=O)Cc3ccc(Cl)cn3)ccn2)c2cnccc21 (single isomer, unassigned) [Example 17, 2-(5-chloropyridin-2-yl)-N-(2-{[1-(1-hydroxypropan-2-yl)-1H-pyrrolo[3,2-c]pyridin-3-yl]carbonyl}pyridin-4-yl)acetamide] | 0.106
15 | Cc1nc(CC(=O)Nc2cc(C(=O)c3cn(C(C)C)c4ccncc34)ccn2)c(C)o1 [Example 179, 2-(2,5-dimethyl-1,3-oxazol-4-yl)-N-(4-{[1-(propan-2-yl)-1H-pyrrolo[3,2-c]pyridin-3-yl]carbonyl}pyridin-2-yl)acetamide] | 0.163
16 | CC(C)n1cc(C(=O)c2ccnc(NC(=O)Cc3cnccn3)c2)c2cnccc21 [Example 110, N-(4-{[1-(propan-2-yl)-1H-pyrrolo[3,2-c]pyridin-3-yl]carbonyl}pyridin-2-yl)-2-(pyrazin-2-yl)acetamide] | 3.33
17 | CC(CO)n1cc(C(=O)c2cncc(NC(=O)Cc3ccc(C#N)cc3)c2)c2cnccc21 (centres unmarked) [Example 67] | 0.101
18 | CC(C)c1cn(CC(=O)Nc2cncc(C(=O)c3cn(C(C)CO)c4ccncc34)c2)nn1 (single isomer, unassigned) [Example 62, N-(5-{[1-(1-hydroxypropan-2-yl)-1H-pyrrolo[3,2-c]pyridin-3-yl]carbonyl}pyridin-3-yl)-2-[4-(propan-2-yl)-1H-1,2,3-triazol-1-yl]acetamide] | 0.0543
19 | Cc1nc(CC(=O)Nc2cc(C(=O)c3cn(C(C)C)c4ccncc34)ccn2)c(C2CC2)o1 [Example 174, 2(5-cyclopropyl-2-methyl-1,3-oxazol-4-yl)-N-(4-{[1-(propan-2-yl)-1H-pyrrolo[3,2-c]pyridin-3-yl]carbonyl}pyridin-2-yl)acetamide] | 0.0514
20 | CC(CO)n1cc(C(=O)c2cncc(NC(=O)Cc3ccc(C#N)cc3)c2)c2cnccc21 (single isomer, unassigned) [Example 72, 2-(4-cyanophenyl)-N-(5-{[1-(1-hydroxypropan-2-yl)-1H-pyrrolo[3,2-c]pyridin-3-yl]carbonyl}pyridin-3-yl)acetamide] | 0.125

The next compounds have a lower IC50 than those just listed; values first:

Row | IC50 [µM] | Compound
21 | 0.042 | CC(C)n1cc(C(=O)c2cncc(NC(=O)Cc3ccc(F)cc3)c2)c2cnccc21 [Example 115, 2-(4-fluorophenyl)-N-(5-{[1-(propan-2-yl)-1H-pyrrolo[3,2-c]pyridin-3-yl]carbonyl}pyridin-3-yl)acetamide]
22 | 0.0392 | CC(C)n1cc(C(=O)c2cncc(NC(=O)Cc3cccc(CC(C)(C)O)c3)c2)c2cnccc21 [Example 117, 2-(3-(2-hydroxy-2-methylpropyl)phenyl]-N-(5-{[1-(propan-2-yl)-1H-pyrrolo[3,2-c]pyridin-3-yl]carbonyl}pyridin-3-yl)acetamide]
23 | 0.0338 | COc1ncc(C(=O)c2cn(C(C)C)c3ccncc23)cc1NC(=O)Cn1nc(C(F)(F)F)cc1C [Example 48, N-(2-methoxy-5-{[1-(propan-2-yl)-1H-pyrrolo[3,2-c]pyridin-3-yl]carbonyl}pyridin-3-yl)-2-[5-methyl-3-(trifluoromethyl)-1H-pyrazol-1-yl]acetamide]
24 | 0.0297 | CC(CO)n1cc(C(=O)c2cncc(NC(=O)Cn3ccc(C(F)(F)F)n3)c2)c2cncc(F)c21 (single isomer, unassigned) [Example 208, N-(5-{[7-fluoro-1-(1-hydroxypropan-2-yl)-1H-pyrrolo[3,2-c]pyridin-3-yl]carbonyl}pyridin-3-yl)-2-[3-(trifluoromethyl)-1H-pyrazol-1-yl]acetamide]
25 | 0.0177 | CC(C)n1cc(C(=O)c2ccnc(NC(=O)Cc3ccc(C#N)cc3)c2)c2cnccc21 [Example 183, 2-(4-cyanophenyl)-N-(4-{[1-(propan-2-yl)-1H-pyrrolo[3,2-c]pyridin-3-yl]carbonyl}pyridin-2-yl)acetamide]
26 | 0.0138 | CC(C)n1cc(C(=O)c2ccnc(NC(=O)Cc3cccc(Cl)c3)c2)c2cnccc21 [Example 96, 2-(3-chlorophenyl)-N-(4-{[1-(propan-2-yl)-1H-pyrrolo[3,2-c]pyridin-3-yl]carbonyl}pyridin-2-yl)acetamide]
27 | 0.0106 | Cc1cc(C(F)(F)F)nn1CC(=O)Nc1ccnc(C(=O)c2cn(C(C)C)c3ccncc23)c1 [Example 28, 2-[5-methyl-3-(trifluoromethyl)-1H-pyrazol-1-yl]-N-(2-{[1-(propan-2-yl)-1H-pyrrolo[3,2-c]pyridin-3-yl]carbonyl}pyridin-4-yl)acetamide]
28 | 0.00989 | CC(C)c1cn(CC(=O)Nc2cncc(C(=O)c3cn(C(C)(C)CO)c4ccncc34)c2)nn1 [Example 14, N-(5-{[1-(1-hydroxy-2-methylpropan-2-yl)-1H-pyrrolo[3,2-c]pyridin-3-yl]carbonyl}pyridin-3-yl)-2-[4-(propan-2-yl)-1H-1,2,3-triazol-1-yl]acetamide]
29 | 0.00986 | CC(C)(CO)n1cc(C(=O)c2cncc(NC(=O)Cn3cc(C(F)(F)F)nn3)c2)c2cnccc21 [Example 13, N-(5-{[1-(1-hydroxy-2-methylpropan-2-yl)-1H-pyrrolo[3,2-c]pyridin-3-yl]carbonyl}pyridin-3-yl)-2-[4-(trifluoromethyl)-1H-1,2,3-triazol-1-yl]acetamide]
30 | 0.00533 | CC(C)(CO)n1cc(C(=O)c2cncc(NC(=O)Cn3cc(C(F)(F)F)cn3)c2)c2cncc(F)c21 [Example 4, N-{5-[7-Fluoro-1-(2-hydroxy-1,1-dimethyl-ethyl)-1H-pyrrolo[3,2-c]pyridine-3-carbonyl]-pyridin-3-yl}-2-(4-trifluoromethyl-pyrazol-1-yl)-acetamide]
31 | 0.00441 | CC(C)(CO)n1cc(C(=O)c2cncc(NC(=O)Cc3cccc(C(F)(F)F)c3)c2)c2cncc(F)c21 [Example 5, N-{5-[7-Fluoro-1-(2-hydroxy-1,1-dimethyl-ethyl)-1H-pyrrolo[3,2-c]pyridine-3-carbonyl]-pyridin-3-yl}-2-(3-trifluoromethyl-phenyl)-acetamide]
32 | 0.00311 | CC(C)(CO)n1cc(C(=O)c2cncc(NC(=O)Cc3ccc(C(F)(F)F)cc3)c2)c2cnccc21 [Example 33, N-(5-{[1-(1-hydroxy-2-methylpropan-2-yl)-1H-pyrrolo[3,2-c]pyridin-3-yl]carbonyl}pyridin-3-yl)-2-[4-(trifluoromethyl)phenyl]acetamide]

— US9163021B2, “Pyrrolo[3,2-c]pyridine tropomyosin-related kinase inhibitors” (Pfizer Limited, priority 2012, dated 2015)
